Legend:
GppNHp-bound KRAS^G12D = biological target: T1, GppNHp-bound KRAS^G12D (Homo sapiens, UniProt P01116, G12D); experiment: Binding to KRAS and measurement of dissociation constants (FIG. 4B-4C), GppNHp-bound; conditions: read-out: dissociation constant KD
T1 construct: made in house; host or cells: Escherichia coli BL21-Gold (DE3)

KRAS^G12D⋅BODIPY-GTP = biological target: T2, KRAS^G12D⋅BODIPY-GTP (Homo sapiens, UniProt P01116, G12D); experiment: Nucleotide displacement assay with BODIPY-GTP (fluorescence polarization); format: binding; conditions: 2.5 μM KRAS^G12D⋅BODIPY-GTP, 12 hours
T2 construct: made in house; host or cells: Escherichia coli BL21-Gold (DE3)
Experimental: Nucleotide Displacement Assay
To investigate whether compounds were binding to the same site as GTP, a fluorescent polarization assay was implemented using fluorescently-labeled BODIPY-GTP as a probe. When BODIPY-GTP is free in solution, it has a low polarization. However, when BODIPY-GTP is bound to K-Ras protein, the polarization intensity is high. K-Ras G12D bound to BODIPY-GTP was incubated with different concentrations of ligand or unlabeled GTP or GDP in buffer containing 25 mM Tris-HCl, pH 8, 100 mM NaCl, 5 mM MgCl2, 1 mM EDTA, and 1 mM TCEP. The final concentration of K-Ras G12D bound to BODIPY-GTP in each well was 2.5 μM. The samples were incubated at 25° C. for 12 hours with gentle shaking to allow for the slow intrinsic nucleotide release reaction to take place. The change in fluorescence was measured on a Victor3 plate reader (Perkin Elmer) in 384-well black low-volume plates (Corning, Inc.). The BODIPY-GTP fluorophore was excited at 485 nm and emission was monitored at 535 nm.

GDP-bound KRAS^G12D = biological target: T3, GDP-bound KRAS^G12D (Homo sapiens, UniProt P01116, G12D); experiment: Binding to KRAS and measurement of dissociation constants (FIG. 4B-4C), GDP-bound; conditions: read-out: dissociation constant KD
T3 construct: made in house; host or cells: Escherichia coli BL21-Gold (DE3)

[1] = biological target: T4, GTP-loaded KRAS^G12D / CRAF RBD interaction (Homo sapiens, UniProt P01116, G12D); experiment: In vitro RAS pulldown with CRAF RBD; format: biochemical; conditions: in vitro pull-down
T4 construct: made in house; host or cells: Escherichia coli BL21-Gold (DE3)
Experimental: A 20 μM solution of KRAS^G12D in 50 mM HEPES, 200 mM sodium chloride, 2 mM TCEP with 1 mM EDTA and 1 mM GTP was gently rotated at 25° C. to remove the endogenous nucleotide. Magnesium chloride was then added to 5 mM and the resulting solution was rotated at 4° C. for 4 hours. The GTP-loaded KRAS^G12D was then diluted to 20 nM and incubated with the inhibitors and 5 μL of CRAF-RBD agarose beads (Millipore), 10 μL of RAF1-RBD agarose beads (EMD Millipore, CN: 14-278), or 100 nM RALGDS (Abcam, CN: ab132590) with 20 μL of glutathione beads for 2 hours. The beads were separated from the lysate via a 0.1 μm filter spin cup and centrifuging at 14,000-15,000 rpm. They were then washed twice with PBS before the addition of 1×SDS. The quantity of RAS in the samples was then analyzed using the previously described Western blotting procedure.
(§1) A set of 45 of the closest matches (ranging from 0.85-0.97 Tanimoto coefficient) were synthesized (based on Scheme 2 with appropriate modifications) and tested for their ability to bind to KRAS^G12D by differential scanning fluorimetry.

KRAS^G12D I36N = biological target: T5, KRAS^G12D I36N (Homo sapiens, UniProt P01116, G12D/I36N); experiment: Microscale thermophoresis on binding-site mutant KRAS^G12D I36N; conditions: MST, 31MEW79 experiment of b434
T5 construct: His6 (N); made in house
Experimental: (§2) Mutagenesis of the KRAS^G12D plasmid was performed using a QuikChange XL site-directed mutagenesis kit from Agilent technologies, according to the manufacturer's protocol. Primers were designed using the Agilent QuikChange Primer Design application and purchased from Integrated DNA Technologies. KRAS^G12D D38A forward primer 5′ ATATGATCCAACAATAGAGGCTTCCTACAGGAAGCAAGTAG 3′ (SEQ ID NO: 66), KRAS^G12D D38A reverse primer 5′ CTACTTGCTTCCTGTAGGAAGCCTCTATTGTTGGATCATAT 3′ (SEQ ID NO: 67), KRAS^G12D I36N forward primer 5′ CATTTTGTGGACGAATATGATCCAACAAATGAGGATTCCTACAGG 3′ (SEQ ID NO: 68), KRAS^G12D I36N reverse primer 5′ CCTGTAGGAATCCTCATTTGTTGGATCATATTCGTCCACAAAATG 3′ (SEQ ID NO: 69). DNA sequencing was performed to confirm the correct amino acid sequence of the construct (GeneWiz, Inc.).
KRAS^G12D (250 μM) in 25 mM HEPES, 100 mM sodium chloride, 2 mM TCEP with 20 mM EDTA and 1 mM GppNHp was shaken at 220 rpm at 30° C. to remove the endogenous nucleotide, The solution was placed on ice for 2 minutes prior to the addition of 65 mM MgCl2. After an additional 10 minutes incubation on ice, 200 uL of a 10 uM solution of KRAS^G12D was combined with 200 uL of a 20 uM solution of NT-647-NHS-ester dye (from a 652.4 μM stock). The protein/dye mixture was rotated at 4° C. for 30 minutes, before being separated from the excess dye and buffer exchanged into 25 mM Tris, 100 mM sodium chloride, 2 mM TCEP, and 5 mM MgCl2 via a nap-5 column. The test compounds were arrayed across a 16-point dilution series consisting of 1.5% DMSO with 25 mM Tris, 100 mM NaCl, 2 mM TCEP, 5 mM MgCl2 and 0.05% tween-20. Thermophoretic movement of the fluorescently labeled protein with the inhibitors was performed using a Monolith NT.115 (Nanotemper Technologies). RALA and RHOA were purchased commercially from Abcam (RALA CN:ab102555, RHOA CN:ab101594). […]

GTP-loaded KRAS G12D = biological target: T6, GTP-loaded KRAS G12D (Homo sapiens, UniProt P01116, G12D); experiment: Microscale thermophoresis, GTP-loaded KRAS G12D labeled with NT-647-maleimide; format: binding; conditions: read-out: dissociation constant KD
T6 construct: made in house; host or cells: Escherichia coli BL21-Gold (DE3)
Experimental: Microscale Thermophoresis
KRAS^G12D (250 μM) in 25 mM HEPES, 100 mM sodium chloride, 2 mM TCEP with 20 mM EDTA and 1 mM GppNHp was shaken at 220 rpm at 30° C. to remove the endogenous nucleotide, The solution was placed on ice for 2 minutes prior to the addition of 65 mM MgCl2. […] The protein/dye mixture was rotated at 4° C. for 30 minutes, before being separated from the excess dye and buffer exchanged into 25 mM Tris, 100 mM sodium chloride, 2 mM TCEP, and 5 mM MgCl2 via a nap-5 column. The test compounds were arrayed across a 16-point dilution series consisting of 1.5% DMSO with 25 mM Tris, 100 mM NaCl, 2 mM TCEP, 5 mM MgCl2 and 0.05% tween-20. Thermophoretic movement of the fluorescently labeled protein with the inhibitors was performed using a Monolith NT.115 (Nanotemper Technologies). RALA and RHOA were purchased commercially from Abcam (RALA CN:ab102555, RHOA CN:ab101594).
as §1

KRAS^G12D D38A = biological target: T7, KRAS^G12D D38A (Homo sapiens, UniProt P01116, D38A/G12D); experiment: Microscale thermophoresis on binding-site mutant KRAS^G12D D38A
T7 construct: His6 (N); made in house
Experimental: as §2
KRAS^G12D (250 μM) in 25 mM HEPES, 100 mM sodium chloride, 2 mM TCEP with 20 mM EDTA and 1 mM GppNHp was shaken at 220 rpm at 30° C. to remove the endogenous nucleotide, The solution was placed on ice for 2 minutes prior to the addition of 65 mM MgCl2. After an additional 10 minutes incubation on ice, 200 uL of a 10 uM solution of KRAS^G12D was combined with 200 uL of a 20 uM solution of NT-647-NHS-ester dye (from a 652.4 μM stock). The protein/dye mixture was rotated at 4° C. for 30 minutes, before being separated from the excess dye and buffer exchanged into 25 mM Tris, 100 mM sodium chloride, 2 mM TCEP, and 5 mM MgCl2 via a nap-5 column. The test compounds were arrayed across a 16-point dilution series consisting of 1.5% DMSO with 25 mM Tris, 100 mM NaCl, 2 mM TCEP, 5 mM MgCl2 and 0.05% tween-20. Thermophoretic movement of the fluorescently labeled protein with the inhibitors was performed using a Monolith NT.115 (Nanotemper Technologies). RALA and RHOA were purchased commercially from Abcam (RALA CN:ab102555, RHOA CN:ab101594).
as §1

- Kd (GppNHp-bound KRAS^G12D): 3800 µM
- displacement of BODIPY-GTP (KRAS^G12D⋅BODIPY-GTP): No displacement
- Kd (GDP-bound KRAS^G12D): 7100 µM
- CRAF-bound KRAS^G12D [1]: dose-dependent decrease
- Kd (KRAS^G12D I36N): 47 µM
- Kd (GTP-loaded KRAS G12D): 33 µM
- loss in affinity (KRAS^G12D D38A; KRAS^G12D D38A and I36N vs KRAS^G12D): 1.5 to 3.0 fold
- Kd (KRAS^G12D D38A; MST, 31MEW79 experiment of b434): 83 µM
SMILES: NCCC[C@@H](NC(=O)CN1CCCNCC1)C(=O)NC1Cc2ccccc2C1 [Compound 31MEW79, (R)-2-(2-(1,4-diazepan-1-yl)ethanamido)-5-amino-N-(2,3-dihydro-1H-inden-2-yl)pentanamide]
